{
  "source": "patent US8802597B2",
  "about": "“Herbicidal pyrimidines” (E I du Pont de Nemours and Company, priority 2003, dated 2014)",
  "assay_in_all_cases": "Test C pre/postemergence",
  "assay_type_in_all_cases": "in vivo",
  "key": {"[1]": {"tested_on": "johnsongrass (Sorghum halepense)", "conditions": "for Johnsongrass plant response rating: scale 0 to 100 (0 no effect, 100 complete control)", "source_text": "(§1) Seeds or nutlets of plant species selected from bermudagrass (Cynodon dactylon), Surinam grass (Brachiaria decumbens), cocklebur (Xanthium strumarium), corn (Zea mays), crabgrass (Digitaria sanguinalis), woolly cupgrass (Eriochloa villosa), giant foxtail (Setaria faberii), goosegrass (Eleusine indica), johnsongrass (Sorghum halepense), kochia (Kochia scoparia), lambsquarters (Chenopodium album), morningglory (Ipomoea coccinea), eastern black nightshade (Solanum ptycanthum), yellow nutsedge (Cyperus esculentus), pigweed (Amaranthus retroflexus), common ragweed (Ambrosia elatior), soybean (Glycine max), common (oilseed) sunflower (Helianthus annuus), and velvetleaf (Abutilon theophrasti) were planted and treated preemergence with test chemicals formulated in a non-phytotoxic solvent mixture which included a surfactant.\n(§2) At the same time, plants selected from these crop and weed species and also winter barley (Hordeum vulgare), blackgrass (Alopecurus myosuroides), canarygrass (Phalaris minor), chickweed (Stellaria media), downy brome (Bromus tectorum), green foxtail (Setaria viridis), Italian ryegrass (Lolium multiflorum), wheat (Triticum aestivum), wild oat (Avena fatua) and windgrass (Apera spica-venti) were treated with postemergence applications of some of the test chemicals formulated in the same manner. Plants ranged in height from 2 to 18 cm (1- to 4-leaf stage) for postemergence treatments. Plant species in the flooded paddy test consisted of rice (Oryza sativa), umbrella sedge (Cyperus difformis), duck salad (Heteranthera limosa) and barnyardgrass (Echinochloa crus-galli) grown to the 2-leaf stage for testing. Treated plants and controls were maintained in a greenhouse for 12 to 14 days, after which time all species were compared to controls and visually evaluated. Plant response ratings, summarized in Table C, are based on a scale of 0 to 100 where 0 is no effect and 100 is complete control. A dash (-) response means no test result."}, "[2]": {"tested_on": "giant foxtail (Setaria faberii)", "conditions": "for Foxtail, Giant plant response rating: scale 0 to 100 (0 no effect, 100 complete control)", "source_text": "as §1, §2"}, "[3]": {"tested_on": "bermudagrass (Cynodon dactylon)", "conditions": "for Bermudagrass plant response rating: scale 0 to 100 (0 no effect, 100 complete control)", "source_text": "as §1, §2"}, "soybean (Glycine max)": {"tested_on": "soybean (Glycine max)", "conditions": "for Soybean plant response rating: scale 0 to 100 (0 no effect, 100 complete control)", "source_text": "as §1, §2"}, "[4]": {"conditions": "Preemergence, 31 g ai/ha, scale 0 to 100, 0 no effect, 100 complete control"}, "[5]": {"conditions": "Preemergence, 62 g ai/ha, scale 0 to 100, 0 no effect, 100 complete control"}, "[6]": {"conditions": "Preemergence, 125 g ai/ha, scale 0 to 100"}, "[7]": {"conditions": "Preemergence, 250 g ai/ha, scale 0 to 100"}, "[8]": {"conditions": "Postemergence, 250 g ai/ha, scale 0 to 100"}, "[9]": {"conditions": "Postemergence, 500 g ai/ha, scale 0 to 100"}, "[10]": {"conditions": "Preemergence, 500 g ai/ha, scale 0 to 100"}},
  "data": [
    {"smiles": "CCOC(=O)C(Cl)c1nc(C2CC2)nc(N)c1Br", "note": "(stereo not shown) [Compound 31]", "values": [
      {"measurement": "Plant response rating, Johnsongrass", "setting": "[1]; [4]", "value": 0},
      {"measurement": "Plant response rating, Johnsongrass", "setting": "[1]; [5]", "value": 0},
      {"measurement": "Plant response rating, Johnsongrass", "setting": "[1]; [6]", "value": 0},
      {"measurement": "Plant response rating, Johnsongrass", "setting": "[1]; [7]", "value": 5},
      {"measurement": "Plant response rating, Foxtail, Giant", "setting": "[2]; [4]", "value": 0},
      {"measurement": "Plant response rating, Foxtail, Giant", "setting": "[2]; [5]", "value": 0},
      {"measurement": "Plant response rating, Foxtail, Giant", "setting": "[2]; [6]", "value": 0},
      {"measurement": "Plant response rating, Foxtail, Giant", "setting": "[2]; [7]", "value": 0},
      {"measurement": "Plant response rating, Bermudagrass", "setting": "[3]; [4]", "value": 0},
      {"measurement": "Plant response rating, Bermudagrass", "setting": "[3]; [5]", "value": 0},
      {"measurement": "Plant response rating, Bermudagrass", "setting": "[3]; [6]", "value": 0},
      {"measurement": "Plant response rating, Bermudagrass", "setting": "[3]; [7]", "value": 0},
      {"measurement": "Plant response rating, Soybean", "setting": "soybean (Glycine max); [4]", "value": 0},
      {"measurement": "Plant response rating, Soybean", "setting": "soybean (Glycine max); [5]", "value": 5},
      {"measurement": "Plant response rating, Soybean", "setting": "soybean (Glycine max); [6]", "value": 15},
      {"measurement": "Plant response rating, Soybean", "setting": "soybean (Glycine max); [7]", "value": 80}
    ]},
    {"smiles": "CNN=Cc1nc(C2CC2)nc(N)c1Br", "note": "[Compound 49]", "values": [
      {"measurement": "Johnsongrass plant response rating", "setting": "[1]; Postemergence, 125 g ai/ha", "value": 20},
      {"measurement": "Plant response rating, Johnsongrass", "setting": "[1]; [8]", "value": 35},
      {"measurement": "Plant response rating, Johnsongrass", "setting": "[1]; [9]", "value": 70},
      {"measurement": "Plant response rating, Johnsongrass", "setting": "[1]; [5]", "value": 45},
      {"measurement": "Plant response rating, Johnsongrass", "setting": "[1]; [6]", "value": 65},
      {"measurement": "Plant response rating, Johnsongrass", "setting": "[1]; [7]", "value": 80},
      {"measurement": "Plant response rating, Johnsongrass", "setting": "[1]; [10]", "value": 85},
      {"measurement": "Foxtail, Giant plant response rating", "setting": "[2]; Postemergence, 62 g ai/ha", "value": 0},
      {"measurement": "Foxtail, Giant plant response rating", "setting": "[2]; Postemergence, 125 g ai/ha", "value": 0},
      {"measurement": "Plant response rating, Foxtail, Giant", "setting": "[2]; [8]", "value": 0},
      {"measurement": "Plant response rating, Foxtail, Giant", "setting": "[2]; [9]", "value": 0},
      {"measurement": "Plant response rating, Foxtail, Giant", "setting": "[2]; [5]", "value": 0},
      {"measurement": "Plant response rating, Foxtail, Giant", "setting": "[2]; [6]", "value": 0},
      {"measurement": "Plant response rating, Foxtail, Giant", "setting": "[2]; [7]", "value": 0},
      {"measurement": "Plant response rating, Foxtail, Giant", "setting": "[2]; [10]", "value": 65},
      {"measurement": "Bermudagrass plant response rating", "setting": "[3]; Postemergence, 62 g ai/ha", "value": 0},
      {"measurement": "Bermudagrass plant response rating", "setting": "[3]; Postemergence, 125 g ai/ha", "value": 55},
      {"measurement": "Plant response rating, Bermudagrass", "setting": "[3]; [8]", "value": 55},
      {"measurement": "Plant response rating, Bermudagrass", "setting": "[3]; [9]", "value": 65},
      {"measurement": "Plant response rating, Bermudagrass", "setting": "[3]; [5]", "value": 0},
      {"measurement": "Plant response rating, Bermudagrass", "setting": "[3]; [6]", "value": 0},
      {"measurement": "Plant response rating, Bermudagrass", "setting": "[3]; [7]", "value": 85},
      {"measurement": "Plant response rating, Bermudagrass", "setting": "[3]; [10]", "value": 95},
      {"measurement": "Soybean plant response rating", "setting": "soybean (Glycine max); Postemergence, 62 g ai/ha", "value": 95},
      {"measurement": "Soybean plant response rating", "setting": "soybean (Glycine max); Postemergence, 125 g ai/ha", "value": 95},
      {"measurement": "Plant response rating, Soybean", "setting": "soybean (Glycine max); [8]", "value": 95},
      {"measurement": "Plant response rating, Soybean", "setting": "soybean (Glycine max); [9]", "value": 100},
      {"measurement": "Plant response rating, Soybean", "setting": "soybean (Glycine max); [5]", "value": 0},
      {"measurement": "Plant response rating, Soybean", "setting": "soybean (Glycine max); [6]", "value": 70},
      {"measurement": "Plant response rating, Soybean", "setting": "soybean (Glycine max); [7]", "value": 90},
      {"measurement": "Plant response rating, Soybean", "setting": "soybean (Glycine max); [10]", "value": 90}
    ]},
    {"smiles": "CCCCOC(=O)c1nc(C2CC2)nc(N)c1Br", "note": "[Compound 16]", "values": [
      {"measurement": "Plant response rating (scale of 0 to 100), Johnsongrass", "setting": "[1]; Postemergence, 31 g ai/ha", "value": 0},
      {"measurement": "Johnsongrass plant response rating", "setting": "[1]; Postemergence, 62 g ai/ha", "value": 0},
      {"measurement": "Johnsongrass plant response rating", "setting": "[1]; Postemergence, 125 g ai/ha", "value": 60},
      {"measurement": "Plant response rating, Johnsongrass", "setting": "[1]; [8]", "value": 70},
      {"measurement": "Plant response rating, Johnsongrass", "setting": "[1]; [4]", "value": 0},
      {"measurement": "Plant response rating, Johnsongrass", "setting": "[1]; [5]", "value": 40},
      {"measurement": "Plant response rating, Johnsongrass", "setting": "[1]; [6]", "value": 65},
      {"measurement": "Plant response rating, Johnsongrass", "setting": "[1]; [7]", "value": 80},
      {"measurement": "Plant response rating (scale of 0 to 100), Foxtail, Giant", "setting": "[2]; Postemergence, 31 g ai/ha", "value": 0},
      {"measurement": "Foxtail, Giant plant response rating", "setting": "[2]; Postemergence, 62 g ai/ha", "value": 20},
      {"measurement": "Foxtail, Giant plant response rating", "setting": "[2]; Postemergence, 125 g ai/ha", "value": 55},
      {"measurement": "Plant response rating, Foxtail, Giant", "setting": "[2]; [8]", "value": 65},
      {"measurement": "Plant response rating, Foxtail, Giant", "setting": "[2]; [4]", "value": 0},
      {"measurement": "Plant response rating, Foxtail, Giant", "setting": "[2]; [5]", "value": 0},
      {"measurement": "Plant response rating, Foxtail, Giant", "setting": "[2]; [6]", "value": 0},
      {"measurement": "Plant response rating, Foxtail, Giant", "setting": "[2]; [7]", "value": 75},
      {"measurement": "Plant response rating (scale of 0 to 100), Bermudagrass", "setting": "[3]; Postemergence, 31 g ai/ha", "value": 0},
      {"measurement": "Bermudagrass plant response rating", "setting": "[3]; Postemergence, 62 g ai/ha", "value": 0},
      {"measurement": "Plant response rating, Bermudagrass", "setting": "[3]; [8]", "value": 75},
      {"measurement": "Plant response rating, Bermudagrass", "setting": "[3]; Postemergence, 125 g ai/ha, scale 0 to 100", "value": 60},
      {"measurement": "Plant response rating, Bermudagrass", "setting": "[3]; [4]", "value": 0},
      {"measurement": "Plant response rating, Bermudagrass", "setting": "[3]; [5]", "value": 0},
      {"measurement": "Plant response rating, Bermudagrass", "setting": "[3]; [6]", "value": 0},
      {"measurement": "Plant response rating, Bermudagrass", "setting": "[3]; [7]", "value": 0},
      {"measurement": "Plant response rating (scale of 0 to 100), Soybean", "setting": "soybean (Glycine max); Postemergence, 31 g ai/ha", "value": 85},
      {"measurement": "Soybean plant response rating", "setting": "soybean (Glycine max); Postemergence, 62 g ai/ha", "value": 95},
      {"measurement": "Soybean plant response rating", "setting": "soybean (Glycine max); Postemergence, 125 g ai/ha", "value": 100},
      {"measurement": "Plant response rating, Soybean", "setting": "soybean (Glycine max); [8]", "value": 100},
      {"measurement": "Plant response rating, Soybean", "setting": "soybean (Glycine max); [4]", "value": 75},
      {"measurement": "Plant response rating, Soybean", "setting": "soybean (Glycine max); [5]", "value": 85},
      {"measurement": "Plant response rating, Soybean", "setting": "soybean (Glycine max); [6]", "value": 100},
      {"measurement": "Plant response rating, Soybean", "setting": "soybean (Glycine max); [7]", "value": 100}
    ]}
  ]
}
